Data from patent US11312712B2, “Azabenzimidazoles and their use as AMPA receptor modulators” (Janssen Pharmaceutica NV, priority 2015, dated 2022).

These compounds were tested against GluA1o-γ8 (GRIA1o-CACNG8 fusion construct) (Homo sapiens (Human), UniProt P42261+Q8WXS5) (assay: Calcium flux assay (FLIPR), inhibition of TARP γ8 dependent AMPA receptor activity). Settings: GluA1o-γ8 (GRIA1o-CACNG8 fusion) in HEK293 cells, calcium flux after 15 μM glutamate.
Sequence of GluA1o-γ8 (GRIA1o-CACNG8 fusion construct) (P42261 other isoform, or with tags, fused parts or gaps): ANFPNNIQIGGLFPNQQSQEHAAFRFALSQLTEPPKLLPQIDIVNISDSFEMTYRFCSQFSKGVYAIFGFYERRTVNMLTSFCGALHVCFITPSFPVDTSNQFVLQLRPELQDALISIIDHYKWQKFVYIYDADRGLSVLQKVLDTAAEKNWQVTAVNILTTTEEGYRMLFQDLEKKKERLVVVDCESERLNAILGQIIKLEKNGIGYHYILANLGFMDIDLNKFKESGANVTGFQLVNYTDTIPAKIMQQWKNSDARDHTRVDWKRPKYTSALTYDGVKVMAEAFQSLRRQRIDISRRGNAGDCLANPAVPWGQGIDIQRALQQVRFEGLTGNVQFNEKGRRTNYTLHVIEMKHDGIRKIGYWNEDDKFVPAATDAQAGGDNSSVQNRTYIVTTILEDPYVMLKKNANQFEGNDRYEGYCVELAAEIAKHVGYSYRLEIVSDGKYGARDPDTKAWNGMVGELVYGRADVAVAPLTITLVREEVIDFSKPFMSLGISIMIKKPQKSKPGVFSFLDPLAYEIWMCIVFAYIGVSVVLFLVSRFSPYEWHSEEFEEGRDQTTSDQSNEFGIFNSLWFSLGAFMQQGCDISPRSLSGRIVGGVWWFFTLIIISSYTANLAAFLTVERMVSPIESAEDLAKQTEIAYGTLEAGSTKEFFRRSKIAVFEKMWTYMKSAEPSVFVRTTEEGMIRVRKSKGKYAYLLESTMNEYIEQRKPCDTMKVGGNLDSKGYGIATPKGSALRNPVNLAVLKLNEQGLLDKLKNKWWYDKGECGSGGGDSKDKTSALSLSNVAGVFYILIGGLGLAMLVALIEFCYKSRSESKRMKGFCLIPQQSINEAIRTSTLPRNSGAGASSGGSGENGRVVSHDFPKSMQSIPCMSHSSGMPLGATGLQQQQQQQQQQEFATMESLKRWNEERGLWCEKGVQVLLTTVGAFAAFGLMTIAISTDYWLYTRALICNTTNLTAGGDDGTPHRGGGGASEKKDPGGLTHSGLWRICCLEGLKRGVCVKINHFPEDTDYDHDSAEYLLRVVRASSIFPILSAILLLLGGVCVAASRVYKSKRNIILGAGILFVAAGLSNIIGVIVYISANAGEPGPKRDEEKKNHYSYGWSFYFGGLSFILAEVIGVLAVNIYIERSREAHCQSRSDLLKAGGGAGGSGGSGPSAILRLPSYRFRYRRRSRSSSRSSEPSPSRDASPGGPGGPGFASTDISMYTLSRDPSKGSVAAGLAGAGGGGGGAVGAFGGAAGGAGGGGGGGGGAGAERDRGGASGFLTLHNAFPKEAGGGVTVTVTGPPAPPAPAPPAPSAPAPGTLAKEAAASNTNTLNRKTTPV
Format: cell-based
Summary of the method: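 Glutamate (15 μM) was added to a stable HEK293 line carrying the GluA1o–γ8 fusion, which had been preincubated with compound and calcium dye in HEPES buffer, pH 7.4. Normalized FLIPR fluorescence (no compound vs 10 μM CP465022) was fitted with four parameters; pIC50 is the midpoint's negative log.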
With `FC(F)c1ccc2nc(C(F)F)n(-c3cc(Cl)c4[nH]ncc4c3)c2n1` [Example 207, 3-(7-Chloro-1H-indazol-5-yl)-2,5-bis(difluoromethyl)imidazo[4,5-b]pyridine] the IC50 was 0.0631 nM.
In the case of `FC(F)(F)c1nc2ccc(C3CCC3)nc2n1-c1ccc2[nH]ncc2c1` [Example 208, 5-Cyclobutyl-3-(1H-indazol-5-yl)-2-(trifluoromethyl)imidazo[4,5-b]pyridine], the IC50 is reported as 0.158 nM.
Work on `CC(C)c1nc2ccc(C(F)F)nc2n1-c1ccc2[nH]ncc2c1` [Example 210, 5-(Difluoromethyl)-3-(1H-indazol-5-yl)-2-isopropyl-imidazo[4,5-b]pyridine] yielded an IC50 of 0.631 nM.
Work on `CC(C)c1nc2ccc(C(C)(F)F)nc2n1-c1ccc2[nH]ncc2c1` [Example 211, 5-(1,1-Difluoroethyl)-3-(1H-indazol-5-yl)-2-isopropyl-imidazo[4,5-b]pyridine] yielded an IC50 of 5.01 nM.
Compound `Cc1cc(-n2c(C(F)F)nc3ccc(C(F)F)nc32)cc2cn[nH]c12` [Example 212, 2,5-Bis(difluoromethyl)-3-(7-methyl-1H-indazol-5-yl)imidazo[4,5-b]pyridine] has an IC50 of 0.0794 nM.
For `Cc1ccc2nc(-c3ccnc(F)c3)n(-c3cc(C)c4[nH]ncc4c3)c2n1` [Example 213, 2-(2-Fluoro-4-pyridyl)-5-methyl-3-(7-methyl-1H-indazol-5-yl)imidazo[4,5-b]pyridine], the IC50 was 0.501 nM.
For `Cc1cc(-n2c(C(C)C)nc3c(N(C)CCF)cc(C(F)(F)F)nc32)cc2cn[nH]c12` [Example 214, N-(2-Fluoroethyl)-2-isopropyl-N-methyl-3-(7-methyl-1H-indazol-5-yl)-5-(trifluoromethyl)imidazo[4,5-b]pyridin-7-amine], the IC50 was 0.158 nM.
Compound `O=C1Nc2ccc(-n3c(-c4ccnc(F)c4)nc4ccc(C(F)(F)F)nc43)cc2C1=O` [Example 215, 5-[2-(2-Fluoro-4-pyridyl)-5-(trifluoromethyl)imidazo[4,5-b]pyridin-3-yl]indoline-2,3-dione] has an IC50 of 1580 nM.
`Cc1cc(-n2c(-c3ccnc(F)c3)nc3ccc(C(F)(F)F)nc32)cc2cn[nH]c12` [Example 217, 2-(2-Fluoro-4-pyridyl)-3-(7-methyl-1H-indazol-5-yl)-5-(trifluoromethyl)imidazo[4,5-b]pyridine] gave an IC50 of 0.0501 nM.
`FCCOc1cc(C(F)(F)F)nc2c1nc(C(F)(F)F)n2-c1cc(Cl)c2[nH]ncc2c1` [Example 218, 3-(7-Chloro-1H-indazol-5-yl)-7-(2-fluoroethoxy)-2,5-bis(trifluoromethyl)imidazo[4,5-b]pyridine] showed an IC50 of 0.0501 nM.
Work on `OC/C=C/c1cc(-n2c(C(F)(F)F)nc3ccc(C(F)(F)F)nc32)cc2cn[nH]c12` [Example 219, (E)-3-(5-(2,5-Bis(trifluoromethyl)-3H-imidazo[4,5-b]pyridin-3-yl)-1H-indazol-7-yl)prop-2-en-1-ol] yielded an IC50 of 15.8 nM.
`OCCCc1cc(-n2c(C(F)(F)F)nc3ccc(C(F)(F)F)nc32)cc2cn[nH]c12` [Example 220, 3-(5-(2,5-Bis(trifluoromethyl)-3H-imidazo[4,5-b]pyridin-3-yl)-1H-indazol-7-yl)propan-1-ol] gave an IC50 of 158 nM.
`CCCc1cc(-n2c(C(F)(F)F)nc3ccc(C(F)(F)F)nc32)cc2cn[nH]c12` [Example 221, 3-(7-Propyl-1H-indazol-5-yl)-2,5-bis(trifluoromethyl)-3H-imidazo[4,5-b]pyridine] showed an IC50 of 0.126 nM.
For `Cc1cc(-n2c(C(F)(F)F)nc3ccc(/C=C/CO)nc32)cc2cn[nH]c12` [Example 222, (E)-3-(3-(7-Methyl-1H-indazol-5-yl)-2-(trifluoromethyl)-3H-imidazo[4,5-b]pyridin-5-yl)prop-2-en-1-ol], the IC50 was 31.6 nM.
`Cc1cc(-n2c(C(F)(F)F)nc3ccc(CCCO)nc32)cc2cn[nH]c12` [Example 223, 3-(3-(7-Methyl-1H-indazol-5-yl)-2-(trifluoromethyl)-3H-imidazo[4,5-b]pyridin-5-yl)propan-1-ol] was tested, and the IC50 was 100 nM.
`CCCc1ccc2nc(C(F)(F)F)n(-c3cc(C)c4[nH]ncc4c3)c2n1` [Example 224, 3-(7-Methyl-1H-indazol-5-yl)-5-propyl-2-(trifluoromethyl)-3H-imidazo[4,5-b]pyridine] was tested, and the IC50 was 0.158 nM.
`Oc1cc(-c2nc3ccc(C(F)(F)F)nc3n2-c2ccc3[nH]ncc3c2)ccn1` [Example 225, 4-[3-(1H-Indazol-5-yl)-5-(trifluoromethyl)imidazo[4,5-b]pyridin-2-yl]pyridin-2-ol] gave an IC50 of 251 nM.
`FC(F)(F)c1ccc2ncn(-c3ccc4[nH]ncc4c3)c2n1` [Example 226, 3-(1H-Indazol-5-yl)-5-(trifluoromethyl)imidazo[4,5-b]pyridine] gave an IC50 of 398 nM.
`FC(F)c1ccc2nc(C3CC3)n(-c3cc(Cl)c4[nH]ncc4c3)c2n1` [Example 227, 3-(7-Chloro-1H-indazol-5-yl)-2-cyclopropyl-5-(difluoromethyl)imidazo[4,5-b]pyridine] gave an IC50 of 0.0501 nM.
`Cc1cc(-n2c(-c3ccc(F)cc3)nc3ccc(C(F)F)nc32)cc2cn[nH]c12` [Example 228, 5-(Difluoromethyl)-2-(4-fluorophenyl)-3-(7-methyl-1H-indazol-5-yl)imidazo[4,5-b]pyridine] was tested, and the IC50 was 0.0158 nM.
For `Fc1ccc(-c2nc3ccc(C(F)F)nc3n2-c2cc(Cl)c3[nH]ncc3c2)cc1` [Example 229, 3-(7-Chloro-1H-indazol-5-yl)-5-(difluoromethyl)-2-(4-fluorophenyl)imidazo[4,5-b]pyridine], the IC50 was 0.00631 nM.
In the case of `O=c1[nH]c2ccc(-n3c(C(F)(F)F)nc4c(N5CCOCC5)cc(C(F)(F)F)nc43)cc2s1` [Example 230, 6-[7-Morpholino-2,5-bis(trifluoromethyl)imidazo[4,5-b]pyridin-3-yl]-3H-1,3-benzothiazol-2-one], the IC50 is reported as 1 nM.
With `FC(F)(F)c1cc(N2CCOCC2)c2nc(C(F)(F)F)n(-c3ccc4[nH]ncc4c3)c2n1` [Example 231, 4-[3-(1H-Indazol-5-yl)-2,5-bis(trifluoromethyl)imidazo[4,5-b]pyridin-7-yl]morpholine] the IC50 was 3.98 nM.
`CCC(F)(F)c1nc2ccc(C(F)(F)F)nc2n1-c1ccc2[nH]ncc2c1` [Example 232, 2-(1,1-Difluoropropyl)-3-(1H-indazol-5-yl)-5-(trifluoromethyl)imidazo[4,5-b]pyridine] showed an IC50 of 15.8 nM.
With `O=c1[nH]c2ccc(-n3c(C(F)(F)C(F)(F)F)nc4ccc(C(F)(F)F)nc43)cc2s1` [Example 233, 6-[2-(1,1,2,2,2-Pentafluoroethyl)-5-(trifluoromethyl)imidazo[4,5-b]pyridin-3-yl]-3H-1,3-benzothiazol-2-one] the IC50 was 0.316 nM.
Work on `O=c1[nH]c2ccc(-n3c(C(F)F)nc4ccc(C(F)(F)F)nc43)cc2s1` [Example 234, 6-[2-(Difluoromethyl)-5-(trifluoromethyl)imidazo[4,5-b]pyridin-3-yl]-3H-1,3-benzothiazol-2-one] yielded an IC50 of 0.0794 nM.
Compound `O=c1[nH]c2ccc(-n3c(C(F)F)nc4ccc(C(F)(F)F)nc43)cc2o1` [Example 235, 6-[2-(Difluoromethyl)-5-(trifluoromethyl)imidazo[4,5-b]pyridin-3-yl]-3H-1,3-benzoxazol-2-one] has an IC50 of 63.1 nM.
Compound `O=c1[nH]c2ccc(-n3c(C(F)(F)F)nc4ccc(C(F)(F)F)nc43)cc2o1` [Example 236, 6-[2,5-Bis(trifluoromethyl)imidazo[4,5-b]pyridin-3-yl]-3H-1,3-benzoxazol-2-one] has an IC50 of 6.31 nM.
In the case of `Fc1n[nH]c2ccc(-n3c(C(F)(F)F)nc4ccc(C(F)(F)F)nc43)cc12` [Example 237, 3-(3-Fluoro-1H-indazol-5-yl)-2,5-bis(trifluoromethyl)imidazo[4,5-b]pyridine], the IC50 is reported as 2.51 nM.
`FC(F)c1ccc2nc(C(F)(F)F)n(-c3ccc4[nH]ncc4c3)c2n1` [Example 238, 5-(Difluoromethyl)-3-(1H-indazol-5-yl)-2-(trifluoromethyl)imidazo[4,5-b]pyridine] gave an IC50 of 0.398 nM.
With `COc1nc2ccc(C(F)(F)F)nc2n1-c1ccc2[nH]c(=O)sc2c1` [Example 239, 6-[2-Methoxy-5-(trifluoromethyl)imidazo[4,5-b]pyridin-3-yl]-3H-1,3-benzothiazol-2-one] the IC50 was 2 nM.
With `CCOc1nc2ccc(C(F)(F)F)nc2n1-c1ccc2[nH]c(=O)sc2c1` [Example 240, 6-[2-Ethoxy-5-(trifluoromethyl)imidazo[4,5-b]pyridin-3-yl]-3H-1,3-benzothiazol-2-one] the IC50 was 1 nM.
`COc1nc2ccc(C(F)(F)F)nc2n1-c1cc(C)c2[nH]ncc2c1` [Example 241, 2-Methoxy-3-(7-methyl-1H-indazol-5-yl)-5-(trifluoromethyl)imidazo[4,5-b]pyridine] gave an IC50 of 0.398 nM.
In the case of `CCOc1nc2ccc(C(F)(F)F)nc2n1-c1cc(C)c2[nH]ncc2c1` [Example 242, 2-Ethoxy-3-(7-methyl-1H-indazol-5-yl)-5-(trifluoromethyl)imidazo[4,5-b]pyridine], the IC50 is reported as 0.398 nM.
`CCOc1nc2ccc(C(F)(F)F)nc2n1-c1ccc2c(c1)CC(=O)N2` [Example 243, 5-[2-Ethoxy-5-(trifluoromethyl)imidazo[4,5-b]pyridin-3-yl]indolin-2-one] was tested, and the IC50 was 15.8 nM.
For `COc1nc2ccc(C(F)(F)F)nc2n1-c1ccc2c(c1)CC(=O)N2` [Example 244, 5-[2-Methoxy-5-(trifluoromethyl)imidazo[4,5-b]pyridin-3-yl]indolin-2-one], the IC50 was 39.8 nM.
Compound `CS(=O)(=O)Cc1nc2ccc(C(F)(F)F)nc2n1-c1ccc2[nH]ncc2c1` [Example 245, 3-(1H-indazol-5-yl)-2-(methylsulfonylmethyl)-5-(trifluoromethyl)imidazo[4,5-b]pyridine] has an IC50 of 316 nM.
`Cc1cc(-n2c3nc(C(F)(F)F)ccc3nc2[C@H]2C[C@@H](F)C2)cc2cn[nH]c12` [Example 246, 2-(3-Fluorocyclobutyl)-3-(7-methyl-1H-indazol-5-yl)-5-(trifluoromethyl)imidazo[4,5-b]pyridine] gave an IC50 of 0.126 nM.
`Cc1cc(-n2c3nc(C(F)(F)F)ccc3nc2[C@H]2C[C@H](F)C2)cc2cn[nH]c12` [Example 247, 2-(3-Fluorocyclobutyl)-3-(7-methyl-1H-indazol-5-yl)-5-(trifluoromethyl)imidazo[4,5-b]pyridine] showed an IC50 of 0.0631 nM.
